# Measurements reported in PubChem BioAssay AID1996.
# Conditions: buffer; pH 7.4; 200.0 µM
row,SMILES,solubility kinetic [µg/mL]
1,Nc1nnc(SCC(=O)c2cccc([N+](=O)[O-])c2)s1,> 44.4
2,Cc1cc(Nc2ccccc2Cl)c2ccccc2n1,> 40.3
3,CCOC(=O)C(=CNc1nc2ccc(C(=O)OCC)cc2s1)C(=O)OCC,< 0.4
4,COc1ccc(C(=O)COC(=O)c2c(C)noc2C)cc1Cl,2.9
5,O=C1C2C3CCC(O3)C2C(=O)N1c1cccc(O)c1 (stereo not given),> 38.9
6,O=c1[nH]c(=S)[nH]c2c1CN(Cc1ccc(F)cc1)CC2,28.6
7,O=[N+]([O-])c1cccc2ccc(N3CCOCC3)nc12,38.4
8,Cc1cc(C(=O)Nc2ccc(F)cc2C)n(-c2ccccc2)n1,> 46.4
9,CCN(CC(=O)NCc1cccs1)C(=O)c1cccc(S(=O)(=O)N2CC(C)OC(C)C2)c1 (stereo not given),> 71.9
10,CCC(=O)N1CCN(c2ccnc3cc(Cl)ccc23)CC1,40.4
11,O=C(CN1C(=O)NC2(CCCCCC2)C1=O)NC1CC1,> 41.9
12,O=c1cc(CN2CCOCC2)c2cc(Cl)ccc2o1,> 42
13,O=C(NC1CC1)C1CCN(c2ncccn2)CC1,> 36.9
14,C=CCOc1cccc(C2NC(=O)c3ccccc3O2)c1 (stereo not given),3
15,C=CCNC(=O)CN1CCC(c2nc3cc(C)c(C)cc3[nH]2)CC1,> 49
16,COc1cc(S(=O)(=O)n2cnc3ccccc32)ccc1Br,> 55.1
17,O=C(Nc1ccc2c(c1)OCCO2)C1CC(O)CN1C(=O)Nc1ccccc1 (stereo not given),> 57.5
18,CCOC(=O)C1CCN(Cc2cc(Cl)c3ccccc3c2O)CC1,6.2
19,Cc1cc(/C(N)=N/OC(=O)c2cccc(Cl)c2)no1,2.2
20,C=CCn1c(-c2ccc(Cl)cc2)cnc1SC(C)C(=O)NC(N)=O (stereo not given),14.2

row,SMILES,solubility kinetic [µg/mL]
1,O=C(Cn1c(=O)sc2ccccc21)Nc1ccc(O)cc1,> 45
2,Cc1nc2ccccc2c(=O)n1-c1ccc(Cl)c(Cl)c1,44
3,COc1ccc(OCCOCCN2CCN(C)CC2)cc1.O=C(O)C(=O)O,54.2
4,CC(=O)c1cnc(Nc2cccc(C)c2)s1,13.7
5,CCOc1ncccc1C(=O)Nc1ccc(F)c(F)c1,6.7
6,O=C(Nc1cc(C(F)(F)F)ccc1N1CCOCC1)C1CCCO1 (stereo not given),> 51.6
7,CNC(=S)Nc1cccc(S(=O)(=O)NCc2ccco2)c1,> 48.8
8,CSc1nsc(SCC(=O)Nc2ccc(OC(C)=O)cc2)n1,2.8
9,CCCCNC(=O)C1CCN(S(=O)(=O)N2CCOCC2)CC1,> 50
10,C=CCOn1c(=O)c(-c2ccc(Br)cc2)[n+]([O-])c2ccccc21,0.4
11,NC(=O)C1CCN(CC(O)COCc2ccccc2Cl)CC1 (stereo not given),> 49
12,C=CCn1c(O)c(N=O)c2ccccc21,> 30.3
13,COC(=O)c1sccc1NC(=O)CNC(=O)c1ccccc1,> 47.8
14,c1ccc(Cc2nc3ccccc3[nH]2)cc1,> 31.2
15,CN(CCO)C(=O)c1ccc(-c2nn(C)c(=O)c3ccccc23)cc1,> 50.6
16,COc1ccc(Cn2c(C(C)C)nc3sc4ccccc4c(=O)c3c2=O)cc1,< 0.4
17,COc1cccc2cc(C(=O)NC3CC4CCC3C4)oc12 (stereo not given),31.6
18,COc1cc(N)c(Cl)cc1C(=O)OCC(=O)NCC1CCCCC1,4.8
19,Cc1ccc(C(=O)OCC(=O)N(C)c2ccccc2)c(C)c1,> 44.6
20,O=c1c2[nH]cnc2n(-c2cccc(F)c2)c(=O)n1Cc1ccccc1,> 50.4

row,SMILES,solubility kinetic [µg/mL]
1,CCOc1ccc(NC(=S)NC23CN4CN(CN(C4)C2)C3)cc1,> 50
2,CCC(C(=O)OCC(=O)Nc1ccc(OC)cc1OC)c1ccccc1 (stereo not given),3.5
3,CCCCCCC1CCC(C(=O)N2CCOCC2)CC1 (stereo not given),10
4,Cc1ccc(NC(=O)CSc2nc3ccccc3c(=O)[nH]2)cc1[N+](=O)[O-],3.6
5,O=C(CN1C(=O)NC2(CCCCCC2)C1=O)c1cccs1,> 46
6,CCOC(=O)c1cnc2cc(F)c(F)cc2c1N1CCN(C)CC1,30.7
7,COc1ccccc1C(=O)N1CCN(C(=O)Cc2ccccc2)CC1,43.2
8,NC(=O)c1ccc(=O)n(Cc2ccc(F)c(F)c2)c1,> 39.6
9,CC1CCCC(NC(=O)COC(=O)c2ccc([N+](=O)[O-])o2)C1C (stereo not given),18.4
10,COc1ccc(OC)c(NC(=O)Cc2cccs2)c1,30.4
11,COc1ccc(C2SCC(=O)N2c2ccc(F)cc2)cc1 (stereo not given),35.2
12,O=C(O)c1ccccc1C(=O)N(c1ccccc1)c1ccccc1,46.8
13,O=C(O)c1cccnc1Sc1ccc(Br)cc1,> 46.5
14,CCOc1cc(C(=S)N2CCCC2)ccc1OC,> 39.8
15,CC(=O)N(C)c1ccc(NC(=O)Cc2cccc3ccccc23)cc1,3.9
16,COCCNS(=O)(=O)c1cc(OC)ccc1OC,> 41.3
17,CC1CN(CCCCSc2ccccc2)CC(C)O1.Cl (stereo not given),41.8
18,FC(F)(F)c1ccc(NC2=NCCC2)cc1,> 34.2
19,COc1ccc2cc(C(=O)NCc3ccccc3)c(=O)oc2c1,< 0.7
20,CN(Cc1cn(C)nc1-c1ccccc1F)Cc1nccn1C,> 47
